Data reported in patent US10258557B2, “Peptide for stimulating melanogenesis” (priority 2017, dated 2019).
Where a SMILES comes first, the peptide text is derived from it.

Test system: B16F10 cells
Assay: MTT assay, cell viability
Format: cell-based, mouse
Settings: different concentrations, 24, 48 or 72 hours
Procedure: B16F10 is a melanoma cell line isolated from mouse skin (American Type Culture Collection, USA) and was cultured in phenol red-free Dulbecco's Modified Eagle Medium (DMEM) containing 10% (v/v) FBS and penicillin/streptomycin (100 IU/[…]) in 5% CO2 at 37° C.
The cells (2×10^3) in 100 μl complete DMEM were seeded in 96-well plates and treated with the peptide of SEQ ID NO: 1 at different concentrations. The cells treated with ddH2O was used as controls. Ten microliters of 5 mg/ml 3-(4,5-dimethyl-2-thiazolyl)-2,5-diphenyl-2H-tetrazolium bromide solution (MTT; Sigma) was added to each well and incubated at 37° C. for 3 hours. After that, 100 μl 10% SDS in 0.01N HCl was added to dissolve the MTT formazan crystals. The resultant optical density was measured by spectrophotometry at dual wavelengths, 550 and 630 nm.

C[C@H](NC(=O)[C@H](CO)NC(=O)[C@@H](N)CC(N)=O)C(=O)N[C@H](C(=O)N[C@@H](CCC(=O)O)C(=O)N[C@@H](CCCNC(=N)N)C(=O)N[C@@H](CCC(=O)O)C(=O)O)[C@@H](C)O [peptide of SEQ ID NO: 1, AsnSerAlaThrGluArgGlu] (H-NSATERE-OH)
cell viability (MTT) (FIG. 3): did not significantly affect the viability | cell viability (MTT) (FIG. 3, listed as peptide having the amino acid sequence of SEQ ID NO: 1): did not significantly affect viability
